Columns and labels:
[1] = system: Radical scavenging activity; assay: Hydroxyl radical scavenging activity at 2 mM; format: functional
[2] = system: Radical scavenging activity; assay: Hydroxyl radical scavenging activity; format: functional

CC(C)=CCC[C@@](C)(O)[C@H]1CC[C@]2(C)[C@@H]1[C@H](O)C[C@@H]1[C@@]3(C)CC[C@H](O[C@@H]4O[C@H](CO)[C@@H](O)[C@H](O)[C@H]4O[C@@H]4O[C@H](CO)[C@@H](O)[C@H](O)[C@H]4O)C(C)(C)[C@@H]3CC[C@]12C
inhibition [1]: 72%

O=C(O[C@@H]1Cc2c(O)cc(O)cc2O[C@@H]1c1cc(O)c(O)c(O)c1)c1cc(O)c(O)c(O)c1 [EPIGALOCATECHIN GALLATE]
IC50 [2]: 3760 µM

C=C(CCC=C(C)C)[C@H]1CC[C@]2(C)[C@@H]1[C@H](O)C[C@@H]1[C@@]3(C)CC[C@H](O[C@@H]4O[C@H](CO)[C@@H](O)[C@H](O)[C@H]4O[C@@H]4O[C@H](CO)[C@@H](O)[C@H](O)[C@H]4O)C(C)(C)[C@@H]3CC[C@]12C
inhibition [1]: 68%

CC(C)=CC/C=C(\C)[C@H]1CC[C@]2(C)[C@@H]1[C@H](O)C[C@@H]1[C@@]3(C)CC[C@H](O[C@@H]4O[C@H](CO)[C@@H](O)[C@H](O)[C@H]4O[C@@H]4O[C@H](CO)[C@@H](O)[C@H](O)[C@H]4O)C(C)(C)[C@@H]3CC[C@]12C [GINSENOSIDE RG5]
IC50 [2]: 150 µM | inhibition [1]: 16%

CC(C)=CCC[C@](C)(O)[C@H]1CC[C@]2(C)[C@@H]1[C@H](O)C[C@@H]1[C@@]3(C)CC[C@H](O[C@@H]4O[C@H](CO)[C@@H](O)[C@H](O)[C@H]4O[C@@H]4O[C@H](CO)[C@@H](O)[C@H](O)[C@H]4O)C(C)(C)[C@@H]3CC[C@]12C
IC50 [2]: 440 µM | inhibition [1]: 20%

Reference: ChEMBL document CHEMBL1146894, “Stereospecificity in hydroxyl radical scavenging activities of four ginsenosides produced by heat processing” (Bioorg Med Chem Lett, 2006)
